# Measurements from US6342499B1, “Parasitic and saprophagous mite control in beneficial insects” (BASF Aktiengesellschaft, priority 1998, dated 2002).
# Key:
# Format in all cases: in vivo
# Varroa jacobsoni = assay: Example 4: METI, topical treatment of honeybees from hives 70% infested with Varroa; parasite mortality; conditions: 5 days at 31° C.
# Description: (§1) Honeybees (Apis mellifera) taken from hives which are 70% infested with Varroa jacobsoni are chilled to immobilize the bees. A 1 μl droplet of an acetone solution of test compound is applied to the dorsal abdomen of each bee; control bees receive a 1 μl droplet of acetone. A total of 50-52 bees are treated for each dose rate tested. The treated bees are placed in an incubator at 31° C. in the dark and fed 50% sugar water ad libitum for 5 days. After incubation, the bees are examined for mortality and mite infestation.
# [1] = system: honeybees (Apis mellifera); assay: Example 4: METI, topical treatment of honeybees from hives 70% infested with Varroa; bee mortality; conditions: 5 days at 31° C.
# Description: as §1
# Drosophila melanogaster = assay: Example 5: treated paper strips in mite-infested Drosophila culture vials; fly mortality; conditions: treated paper strip; for % Mortality Drosophila Adults: after 5 days at 25° C.; for % Mortality Drosophila larvae: after 15 days, percent of expected progeny vs untreated control
# Description: (§2) Paper towel strips (2×7 cm) are dipped into an acetone solution of test compound and allowed to dry. Control paper towel strips are dipped into acetone and allowed to dry. Treated strips are placed in 2.5×9.5 cm culture vials containing a standard cornmeal-molasses-agar diet, such that the strips are inserted about 1 cm into the diet. Five pairs of heavily infested, newly emerged Drosophila melanogaster are placed into the test vials and incubated at 25° C. After 5 days, the adult flies are evaluated for % mortality and are removed rom each test vial. After 15 days, the mites [Proctoloaelaps sp.(Proct) and Histiostoma sp.(Hist)] and insect larva/pupa are evaluated for mortality and recorded as a percent of expected progeny as determined by the untreated control. At 14 days approximately 200-500 Histiostoma sp. mites (Hist) and approximately 50 Proctolaelaps sp. mites (Proct) are present in the untreated controls.
# [2] = system: Proctolaelaps sp. mites (Proct); assay: Example 5: treated paper strips in mite-infested Drosophila culture vials; Proctolaelaps mortality; conditions: treated paper strip, after 15 days, percent of expected progeny vs untreated control
# Description: as §2
# [3] = system: Histiostoma sp. mites (Hist); assay: Example 5: treated paper strips in mite-infested Drosophila culture vials; Histiostoma mortality; conditions: treated paper strip, after 15 days, percent of expected progeny vs untreated control
# Description: as §2
# [4] = system: Acarapis woodi (trachea mites); assay: Example 3: tracheal mites walked across glass slides dipped in test compound; time to 100% mortality; conditions: slides dipped in 500 ppm acetone solution
# Description: In this evaluation, honeybees (Apis mellifera) which are infested with Acarapis woodi (trachea mites) are dissected to remove the infested tracheae. Glass microscope slides are dipped into acetone solutions of test compound (500 ppm) and the acetone is allowed to evaporate. Infested tracheae are placed directly on the treated slides. The mites are removed from the tracheae by dissection and forced to walk across the treated area. The elapsed time is recorded for 100% mortality, i.e. no movement is observed upon agitation.
compound,measurement,setting,value
"CCCCCCCCCCCCC1=C(OC(C)=O)C(=O)c2ccccc2C1=O [Acequinocyl, acequinocyl]",% Mortality Parasites,Varroa jacobsoni; dose 0.1 μg/bee,12%
same,% Mortality Parasites,Varroa jacobsoni; dose 1.0 μg/bee,0%
same,% Mortality Parasites,Varroa jacobsoni; dose 10.0 μg/bee,83%
same,% Mortality Bees,[1]; dose 0.1 μg/bee,15%
same,% Mortality Bees,[1]; dose 1.0 μg/bee,10%
same,% Mortality Bees,[1]; dose 10.0 μg/bee,42%
Fc1ccc(Oc2cc(Oc3ccc(Cl)c(C(F)(F)F)c3)ncn2)cc1C(F)(F)F [C],% Mortality Drosophila Adults,Drosophila melanogaster; dose 10 ppm,15%
same,% Mortality Drosophila larvae,Drosophila melanogaster; dose 10 ppm,0%
same,% Mortality Drosophila Adults,Drosophila melanogaster; dose 50 ppm,20%
same,% Mortality Drosophila larvae,Drosophila melanogaster; dose 50 ppm,53%
same,% Mortality Drosophila Adults,Drosophila melanogaster; dose 100 ppm,100%
same,% Mortality Drosophila larvae,Drosophila melanogaster; dose 100 ppm,73%
same,% Mortality Mites Proct,[2]; dose 10 ppm,40%
same,% Mortality Mites Proct,[2]; dose 50 ppm,100%
same,% Mortality Mites Proct,[2]; dose 100 ppm,100%
same,% Mortality Mites Hist,[3]; dose 10 ppm,90%
same,% Mortality Mites Hist,[3]; dose 50 ppm,100%
same,% Mortality Mites Hist,[3]; dose 100 ppm,100%
same,Time required in minutes to achieve 100% mortality,[4]; Rep. 1,16 min
same,Time required in minutes to achieve 100% mortality,[4]; Rep. 2,16 min
same,Time required in minutes to achieve 100% mortality,[4]; Rep. 3,15 min
"CC(C)(C)c1ccc(CCOc2ncnc3ccccc23)cc1 [Fenazaquin, fenazaquin]",% Mortality Parasites,Varroa jacobsoni; dose 0.012 μg/bee,19%
same,% Mortality Parasites,Varroa jacobsoni; dose 0.12 μg/bee,27%
same,% Mortality Parasites,Varroa jacobsoni; dose 1.2 μg/bee,87%
same,% Mortality Bees,[1]; dose 0.012 μg/bee,18%
same,% Mortality Bees,[1]; dose 0.12 μg/bee,14%
same,% Mortality Bees,[1]; dose 1.2 μg/bee,18%
"Cc1nn(C)c(Oc2ccccc2)c1C=NOCc1ccc(C(=O)OC(C)(C)C)cc1 [Fenpyroximate, fenpyroximate]",% Mortality Parasites,Varroa jacobsoni; dose 0.003 μg/bee,7%
same,% Mortality Parasites,Varroa jacobsoni; dose 0.03 μg/bee,30%
same,% Mortality Parasites,Varroa jacobsoni; dose 0.3 μg/bee,100%
same,% Mortality Bees,[1]; dose 0.003 μg/bee,13%
same,% Mortality Bees,[1]; dose 0.03 μg/bee,10%
same,% Mortality Bees,[1]; dose 0.3 μg/bee,24%
"CC(C)(C)c1ccc(CSc2cnn(C(C)(C)C)c(=O)c2Cl)cc1 [Pyridaben, pyridaben]",% Mortality Parasites,Varroa jacobsoni; dose 0.001 μg/bee,14%
same,% Mortality Parasites,Varroa jacobsoni; dose 0.01 μg/bee,0%
same,% Mortality Parasites,Varroa jacobsoni; dose 0.1 μg/bee,100%
same,% Mortality Bees,[1]; dose 0.001 μg/bee,12%
same,% Mortality Bees,[1]; dose 0.01 μg/bee,10%
same,% Mortality Bees,[1]; dose 0.1 μg/bee,20%
